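GI50 is the concentration that inhibits growth by half. TGI denotes the concentration required for complete inhibition of growth.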
Tests used:
Experiment in all cases: NCI anticancer screen, dose series, 384-well format
[1] = test system: HL-60(TB) leukemia
[2] = test system: HCC-2998 colon
[3] = test system: OVCAR-8 ovarian
[4] = test system: RXF 393 renal
[5] = test system: SF-539 CNS
[6] = test system: UACC-257 melanoma
[7] = test system: ACHN renal
[8] = test system: T-47D breast
[9] = test system: TK-10 renal
[10] = test system: SK-OV-3 ovarian
[11] = test system: SK-MEL-28 melanoma
[12] = test system: DU-145 prostate
[13] = test system: HT29 colon
[14] = test system: OVCAR-5 ovarian
[15] = test system: PC-3 prostate
[16] = test system: SW-620 colon
[17] = test system: HCT-15 colon
[18] = test system: HS 578T breast
[19] = test system: SF-295 CNS
[20] = test system: MOLT-4 leukemia
[21] = test system: K-562 leukemia
[22] = test system: NCI-H322M lung
[23] = test system: LOX IMVI melanoma
[24] = test system: MDA-MB-468 breast
[25] = test system: UO-31 renal
[26] = test system: 786-0 renal
[27] = test system: MALME-3M melanoma
[28] = test system: BT-549 breast
[29] = test system: A498 renal
[30] = test system: IGROV1 ovarian
[31] = test system: MCF7 breast
[32] = test system: A549 NSCLC
[33] = test system: HOP-62 NSCLC
[34] = test system: NCI-H460 NSCLC
[35] = test system: OVCAR-3 ovarian
[36] = test system: CAKI-1 renal
[37] = test system: COLO 205 colon
[38] = test system: CCRF-CEM leukemia
[39] = test system: NCI-H522 lung
[40] = test system: NCI/ADR-RES ovarian
[41] = test system: SF-268 CNS
[42] = test system: RPMI-8226 leukemia
[43] = test system: M14 melanoma
[44] = test system: SN12C renal
[45] = test system: MDA-MB-231 breast
[46] = test system: OVCAR-4 ovarian
[47] = test system: NCI-H226 lung
[48] = test system: SNB-19 CNS
[49] = test system: HOP-92 NSCLC
[50] = test system: SK-MEL-5 melanoma
[51] = test system: KM12 colon
[52] = test system: SR leukemia
[53] = test system: NCI-H23 lung
[54] = test system: EKVX NSCLC
[55] = test system: SNB-75 CNS
[56] = test system: UACC-62 melanoma
[57] = test system: MDA-MB-435 melanoma

Cc1nc(-c2cnc(NC(C)C)n(C)c2=O)ccc1Oc1ccnc(-c2cnn(C)c2)c1
GI50 [1]: 2.63 µM
TGI [1]: 6.27 µM
GI50 [2]: 14.2 µM
TGI [2]: 36.9 µM
GI50 [3]: 14.6 µM
TGI [3]: 28.4 µM
GI50 [4]: 12.4 µM
TGI [4]: 34.2 µM
GI50 [5]: 12.4 µM
TGI [5]: 25.2 µM
GI50 [6]: 17.2 µM
TGI [6]: 57.1 µM
GI50 [7]: 27.2 µM
TGI [7]: > 100 µM
GI50 [8]: 5.73 µM
TGI [8]: 28.7 µM
GI50 [9]: 27.1 µM
TGI [9]: > 100 µM
GI50 [10]: 11.5 µM
TGI [10]: 25.5 µM
GI50 [11]: 14.5 µM
TGI [11]: 69.5 µM
GI50 [12]: 30.1 µM
TGI [12]: > 100 µM
GI50 [13]: 7.73 µM
TGI [13]: 34.7 µM
GI50 [14]: 17.2 µM
TGI [14]: 34.9 µM
GI50 [15]: 21 µM
TGI [15]: 60.3 µM
GI50 [16]: 5.53 µM
TGI [16]: 17.9 µM
GI50 [17]: 4.68 µM
TGI [17]: 19.4 µM
GI50 [18]: 13.6 µM
TGI [18]: 29.2 µM
GI50 [19]: 15.6 µM
TGI [19]: 62.7 µM
GI50 [20]: 1.87 µM
TGI [20]: 3.56 µM
GI50 [21]: 1.26 µM
TGI [21]: 2.68 µM
GI50 [22]: 23.5 µM
TGI [22]: 73.4 µM
GI50 [23]: 17.9 µM
TGI [23]: 71.6 µM
GI50 [24]: 2.73 µM
TGI [24]: 6.33 µM
GI50 [25]: 97.3 µM
TGI [25]: > 100 µM
GI50 [26]: 18.3 µM
TGI [26]: 61.4 µM
GI50 [27]: 7.48 µM
TGI [27]: 36.5 µM
GI50 [28]: 14 µM
TGI [28]: 81.1 µM
GI50 [29]: 13.2 µM
TGI [29]: > 100 µM
GI50 [30]: 13.7 µM
TGI [30]: 44.3 µM
GI50 [31]: 9.45 µM
TGI [31]: > 100 µM
GI50 [32]: 23.3 µM
TGI [32]: > 100 µM
GI50 [33]: 14.4 µM
TGI [33]: 39.6 µM
GI50 [34]: 15.4 µM
TGI [34]: 37.4 µM
GI50 [35]: 8.64 µM
TGI [35]: 28 µM
GI50 [36]: 25.7 µM
TGI [36]: > 100 µM
GI50 [37]: 9.84 µM
TGI [37]: 22.8 µM
GI50 [38]: 4.56 µM
TGI [38]: 14.9 µM
GI50 [39]: 4.45 µM
TGI [39]: 15.5 µM
GI50 [40]: 5.77 µM
TGI [40]: 19.3 µM
GI50 [41]: 19.8 µM
TGI [41]: 64.1 µM
GI50 [42]: 4.9 µM
TGI [42]: 21.7 µM
GI50 [43]: 7.99 µM
TGI [43]: 27.3 µM
GI50 [44]: 14.5 µM
TGI [44]: 28.3 µM
GI50 [45]: 16.4 µM
TGI [45]: > 100 µM
GI50 [46]: 13.6 µM
TGI [46]: 50.8 µM
GI50 [47]: 19 µM
TGI [47]: 90.7 µM
GI50 [48]: 21.3 µM
TGI [48]: 68.6 µM
GI50 [49]: 19.5 µM
TGI [49]: 68.6 µM
GI50 [50]: 4.46 µM
TGI [50]: 16.2 µM
GI50 [51]: 4.67 µM
TGI [51]: 33.9 µM
GI50 [52]: 1.5 µM
TGI [52]: 2.99 µM
GI50 [53]: 12.4 µM
TGI [53]: 36 µM
GI50 [54]: 18.1 µM
TGI [54]: > 100 µM
GI50 [55]: 10.9 µM
TGI [55]: 26.8 µM
GI50 [56]: 6.42 µM
TGI [56]: 24.6 µM
GI50 [57]: 2.39 µM
TGI [57]: 5.7 µM
